Legend:
[1] = system: SF-539; experiment: NCI 60 antitumor screening (single dose / five doses); type: cell-based; conditions: Homo sapiens; SF-539 (CNS cancer), single dose 10 μM; read-out: Growth inhibition percentage (GI %)
[2] = system: SW-620; experiment: as above; type: cell-based, human; conditions: Homo sapiens; SW-620 (colon cancer), single dose 10 μM; read-out: Growth inhibition percentage (GI %)
[3] = system: MALME-3M; experiment: as above; type: cell-based; conditions: Homo sapiens; MALME-3M (melanoma), single dose 10 μM; read-out: Growth inhibition percentage (GI %)
[4] = system: SNB-75; experiment: as above; type: cell-based; conditions: Homo sapiens; SNB-75 (CNS cancer), single dose 10 μM; read-out: Growth inhibition percentage (GI %)
[5] = system: EKVX; experiment: as above; type: cell-based; conditions: Homo sapiens; EKVX (non-small cell lung cancer), single dose 10 μM; read-out: Growth inhibition percentage (GI %)
[6] = system: HCT-116; experiment: as above; type: cell-based; conditions: Homo sapiens; HCT-116 (colon cancer), single dose 10 μM; read-out: Growth inhibition percentage (GI %)
[7] = system: ACHN; experiment: as above; type: cell-based; conditions: Homo sapiens; ACHN (renal cancer), single dose 10 μM; read-out: Growth inhibition percentage (GI %)
[8] = system: SK-MEL-2; experiment: as above; type: cell-based; conditions: Homo sapiens; SK-MEL-2 (melanoma), single dose 10 μM; read-out: Growth inhibition percentage (GI %)
[9] = system: HCT-15; experiment: as above; type: cell-based; conditions: Homo sapiens; HCT-15 (colon cancer), single dose 10 μM; read-out: Growth inhibition percentage (GI %)
[10] = system: LOX IMVI; experiment: as above; type: cell-based; conditions: Homo sapiens; LOX IMVI (melanoma), single dose 10 μM; read-out: Growth inhibition percentage (GI %)
[11] = system: NCI/ADR-RES; experiment: as above; type: cell-based; conditions: Homo sapiens; NCI/ADR-RES (ovarian cancer), single dose 10 μM; read-out: Growth inhibition percentage (GI %)
[12] = system: MDA-MB-468; experiment: as above; type: cell-based; conditions: Homo sapiens; MDA-MB-468 (breast cancer), single dose 10 μM; read-out: Growth inhibition percentage (GI %)
[13] = system: 60 human subpanel cancer cell lines; experiment: NCI 60 antitumor screening, mean over the panel (single dose); type: cell-based; conditions: mean over 60 cancer cell lines, single dose 10 μM
Experimental: Initially, the anticancer effects of target compounds have been assessed at a single (10 μM) dose. The obtained data have been reported as mean-graph of the percent growth (G%) of the treated cancer cells. Percentage growth inhibition (GI%) is calculated (100 − G%) and pronounced in Table 1. […] Target compounds in series (III) with manipulated linkers disclosed lower potency. Superiorly, eight s-triazine derivatives from the three series (6a, 6c, 6d, 7a, 7g, 7i, 7l, and 8b) have shown potent broad-spectrum anticancer activity against most the examined cell lines, whereas most of the remaining triazine derivatives, 20 derivatives, have exerted selective anti-proliferative actions towards certain cancer cell lines (Supplementary).
The antitumor screening was performed for 60 human cancer cell lines under the protocol of NCI (www.dtp.nci.nih.gov), the Drug Evaluation Branch, Bethesda, MD. All submitted compounds were nominated based on the degree of structural diversity and computer modelling techniques for evaluation of their anticancer activity. The screening process for antineoplastic activity passes through two successive levels, starting with the assessment of target compounds at a single dose of 10 μM against 60 cancer cell lines on nine types of human tumours. These experiments were done on a triplicate following. The output from the single‐dose screening was covered as a mean graph, and then, analysed by the COMPARE program. Finally, the compounds which disclosed subpanel cancer cell growth (G %) equal to or less than 10% in at least eight cancer cell lines get to pass the assessment against the 60 cell lines at five doses (0.01–100 μM). By using GraphPad Prism version 9.0 (Graphpad Software Inc., La Jolla, CA), GI50, TGI, as well as LC50 dose‐response parameters were computed and presented for each compound (Supplementary information)[55–57].

[14] = system: IGROV1; experiment: NCI 60 antitumor screening (single dose / five doses); type: cell-based; conditions: Homo sapiens, IGROV-1; IGROV1 (ovarian cancer), single dose 10 μM; read-out: Growth inhibition percentage (GI %)
[15] = system: SF-295; experiment: as above; type: cell-based; conditions: Homo sapiens; SF-295 (CNS cancer), single dose 10 μM; read-out: Growth inhibition percentage (GI %)
[16] = system: SN 12C; experiment: as above; type: cell-based; conditions: Homo sapiens, SN12C; SN 12C (renal cancer), single dose 10 μM; read-out: Growth inhibition percentage (GI %)
[17] = system: MDA-MB-231/ATCC; experiment: as above; type: cell-based; conditions: Homo sapiens; MDA-MB-231/ATCC (breast cancer), single dose 10 μM; read-out: Growth inhibition percentage (GI %)
[18] = system: K-562; experiment: as above; type: cell-based; conditions: Homo sapiens, K562; K-562 (leukaemia), single dose 10 μM; read-out: Growth inhibition percentage (GI %)
[19] = system: CCRF-CEM; experiment: as above; type: cell-based; conditions: Homo sapiens; CCRF-CEM (leukaemia), single dose 10 μM; read-out: Growth inhibition percentage (GI %)
[20] = system: UO-31; experiment: as above; type: cell-based; conditions: Homo sapiens; UO-31 (renal cancer), single dose 10 μM; read-out: Growth inhibition percentage (GI %)
[21] = system: SK-MEL-28; experiment: as above; type: cell-based; conditions: Homo sapiens; SK-MEL-28 (melanoma), single dose 10 μM; read-out: Growth inhibition percentage (GI %)
[22] = system: HT29; experiment: as above; type: cell-based, human; conditions: Homo sapiens, HT-29; HT29 (colon cancer), single dose 10 μM; read-out: Growth inhibition percentage (GI %)
[23] = system: COLO 205; experiment: as above; type: cell-based; conditions: Homo sapiens; COLO 205 (colon cancer), single dose 10 μM; read-out: Growth inhibition percentage (GI %)
[24] = system: HL-60(TB); experiment: as above; type: cell-based; conditions: Homo sapiens; HL-60(TB) (leukaemia), single dose 10 μM; read-out: Growth inhibition percentage (GI %)
[25] = system: UACC-62; experiment: as above; type: cell-based; conditions: Homo sapiens; UACC-62 (melanoma), single dose 10 μM; read-out: Growth inhibition percentage (GI %)
[26] = system: SK-MEL-5; experiment: as above; type: cell-based; conditions: Homo sapiens; SK-MEL-5 (melanoma), single dose 10 μM; read-out: Growth inhibition percentage (GI %)
[27] = system: T-47D; experiment: as above; type: cell-based; conditions: Homo sapiens, T47D; T-47D (breast cancer), single dose 10 μM; read-out: Growth inhibition percentage (GI %)
[28] = system: MOLT-4; experiment: as above; type: cell-based; conditions: Homo sapiens; MOLT-4 (leukaemia), single dose 10 μM; read-out: Growth inhibition percentage (GI %)

SMILES | inhibition at 10 µM [1] [%] | inhibition at 10 µM [2] [%] | inhibition at 10 µM [3] [%] | inhibition at 10 µM [4] [%] | inhibition at 10 µM [5] [%] | inhibition at 10 µM [6] [%] | inhibition at 10 µM [7] [%] | inhibition at 10 µM [8] [%] | inhibition at 10 µM [9] [%] | inhibition at 10 µM [10] [%] | inhibition at 10 µM [11] [%] | inhibition at 10 µM [12] [%] | Mean GI % [13] [%] | inhibition at 10 µM [14] [%] | inhibition at 10 µM [15] [%] | inhibition at 10 µM [16] [%] | inhibition at 10 µM [17] [%] | inhibition at 10 µM [18] [%] | inhibition at 10 µM [19] [%] | inhibition at 10 µM [20] [%] | further results
CN(C)c1ccc(/C=N/Nc2nc(N/N=C/c3ccc(N(C)C)cc3)nc(N3CCOCC3)n2)cc1 [compound 6g, 4-[(1e)-(2-{4-[(E)-2-{[4-(dimethylamino)phenyl]methylidene}hydrazin-1-yl]-6-(morpholin-4-yl)-1,3,5-triazin-2-yl}hydrazin-1-ylidene)methyl]-N,N-dimethylaniline] | 3.33 | 16.2 | -14.2 | 12.6 | 4.62 | 64.3 | -4.23 | 1.45 | 77.6 | 12.3 | 0.17 | 2.17 | 14.28 | 5.41 | 86.2 | 10.8 | 0.47 | 93.7 | 86.7 | 9.35 | inhibition at 10 µM [21]: -5.75%; inhibition at 10 µM [22]: -1.91%; inhibition at 10 µM [23]: -8.37%; inhibition at 10 µM [24]: 3.26%; inhibition at 10 µM [25]: 2.25%; inhibition at 10 µM [26]: -0.23%; inhibition at 10 µM [27]: 5.31%; inhibition at 10 µM [28]: 3.27%
C(=N\Nc1nc(N/N=C/c2ccc3c(c2)OCO3)nc(N2CCOCC2)n1)/c1ccc2c(c1)OCO2 [compound 6k, 2,4-Bis[(E)-2-(2H-1,3-Benzodioxol-5-ylmethylidene)hydrazin-1-yl]-6-(morpholin-4-yl)-1,3,5-triazine] | 18.2 | 29 | -3.77 | 13.4 | 4.47 | 37.1 | 24.7 | 1.68 | 41.5 | 30.1 | 23.3 | 32.1 | 20.69 | 24.3 | 9.09 | 24.1 | 0.11 | 45.6 | 41 | 46.4 | inhibition at 10 µM [21]: 12.8%; inhibition at 10 µM [22]: 51.7%; inhibition at 10 µM [23]: 40.7%; inhibition at 10 µM [24]: 61.1%; inhibition at 10 µM [25]: -4.28%; inhibition at 10 µM [26]: 14%; inhibition at 10 µM [27]: 23.8%; inhibition at 10 µM [28]: 47.3%
Brc1ccccc1/C=N/Nc1nc(N/N=C/c2ccccc2Br)nc(N2CCCCC2)n1 [compound 7b, 2,4-Bis[(E)-2-[(2-Bromophenyl)methylidene]hydrazin-1-yl]-6-(piperidin-1-yl)-1,3,5-triazine] | 2.62 | -0.46 | -6.25 | -2.35 | 4.52 | -2.25 | 4.56 | -1.28 | 1.2 | 1.94 | -2.41 | 12.4 | −0.12 | 2.38 | -3.22 | 5.69 | 2.05 | 4.67 | 0.06 | 7.3 | inhibition at 10 µM [21]: -0.81%; inhibition at 10 µM [22]: -1.89%; inhibition at 10 µM [23]: -5.18%; inhibition at 10 µM [24]: -3.87%; inhibition at 10 µM [25]: 12.2%; inhibition at 10 µM [26]: 5.12%; inhibition at 10 µM [27]: 11.2%; inhibition at 10 µM [28]: -12.3%

From paper PMC9848300, “Discovery of novel enasidenib analogues targeting inhibition of mutant isocitrate dehydrogenase 2 as antileukaemic agents” (Journal of Enzyme Inhibition and Medicinal Chemistry, 2023)
